From paper PMC6359144 (International Journal of Molecular Sciences, 2019) come the findings set out here.

This assay has as its system acetyl–alpha-tubulin in 518A2 melanoma cells. Nature of the assay: Western blot and immunofluorescence of acetyl-alpha-tubulin. Type of assay: cell-based, human. To be noted: 4f 4, 5, 6 µM (blot), 4 µM (immunofluorescence), 24 h. As for the experimental part:
After harvesting the cells by trypsination, they were pelleted by centrifugation (300× g, 5 min) followed by cell lysis in 100 µL lysis buffer (20 mM DTT, 200 µM sodium vanadate, 50 mM Tris/HCl, 1% triton X-100, 150 mM NaCl, pH 7.4) for 10 min on ice. […] Equal amounts of total protein were subjected to 10% SDS-polyacrylamide gel electrophoresis (SDS-PAGE) and transferred to polyvinylidene difluoride membranes (PVDF, Carl Roth). For subsequent analysis of acetylated protein and of alpha-tubulin which was used as a loading control, membranes were blocked and incubated with primary antibody solutions in 5% bovine serum albumin in 1× TBS or 5% milk powder in PBS, respectively. The protein bands were visualized by chemoluminescence (secondary antibody-HRP conjugates, ECL detection system; Cell Signaling) using a LAS-3000 imager (Fujifilm).
Immuofluorescence staining of acetylated alpha- tubulin.
After washing the cells with PBS, they were fixed in 3.7% formaldehyde in PBS (20 min, rt) followed by blocking and permeabilization in TBS supplemented with 5% BSA and 0.1% triton X-100 (30 min, rt). […]
antibody conjugate in the dark (2 h, rt). […] Pictures were taken by using a Zeiss Imager A1 AX10 fluorescence microscope (400× magnification). […]
The open image area after 24 h (%) compared to that at 0 h was quantified from three independent experiments by using the imageJ 1.50i software. […]

Turning to `COc1ccc(-c2ocnc2-c2cc(Br)c(OC)c(OC)c2)cc1OCCCCCC(=O)NO` [4f, N-Hydroxy-6-[1-methoxy-4-(4’-(3’’-bromo-4’’,5’’-dimethoxyphenyl)oxazol-5’-yl)-2-phenoxy]hexanamide], the acetylation of alpha-tubulin result is on record as “distinct increase of acetyl–alpha-tubulin”.
